Counter-ions that a name gives are not always drawn. Where a SMILES comes first, the peptide text is derived from it. The star is where a group is joined. Cbz = O=C(OCc1ccccc1)*
Target: T1, human A3AR (Homo sapiens, UniProt P0DMS8)
T1 construct: expressed in transfected cells
T1 sequence (P0DMS8 1-318): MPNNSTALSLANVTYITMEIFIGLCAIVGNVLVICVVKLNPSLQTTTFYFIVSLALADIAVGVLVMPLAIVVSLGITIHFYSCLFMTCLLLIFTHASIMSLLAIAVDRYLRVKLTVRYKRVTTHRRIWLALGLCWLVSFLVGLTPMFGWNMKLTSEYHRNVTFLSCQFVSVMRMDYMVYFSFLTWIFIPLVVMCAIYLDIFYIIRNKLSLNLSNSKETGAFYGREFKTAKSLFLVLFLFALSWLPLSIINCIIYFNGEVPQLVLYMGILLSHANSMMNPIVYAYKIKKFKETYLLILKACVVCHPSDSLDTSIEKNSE
Assay: LOPAC library primary screen: single concentration (10 μM) inhibition of 25 nM CA200645 binding, PHERAstar FS
Conditions: not given

Compound	% 25 nM CA200645 binding
C#C[C@]1(O)CC[C@H]2[C@@H]3CCC4=Cc5oncc5C[C@]4(C)[C@H]3CC[C@@]21C [Danazol]	86.4 ± 9.1%
CC(C)[C@H](NC(=O)OCc1ccccc1)C(=O)N[C@H](C=O)Cc1ccccc1 [MDL 28170] (Cbz-Val-Phe-aldehyde)	96.0 ± 2.8%
Nc1ncnc2n[nH]c(Nc3ccc(F)cc3)c12 [CGP 57380]	81.2 ± 23.0%
Cl.OC1CCCCC1N1CCC(c2ccccc2)CC1 (racemic) [(±)-Vesamicol hydrochloride]	112.9 ± 7.4%
C[C@]12CCC(=O)C=C1CC[C@@H]1[C@@H]2[C@@H](O)C[C@@]2(C)[C@H]1CC[C@]2(O)C(=O)CO [Hydrocortisone]	84.4 ± 24.1%
NC1CCN(O)C1=O (racemic) [(±)-HA-966]	96.6 ± 6.4%
CC(=O)SCC[N+](C)(C)C.[Cl-] [Acetylthiocholine chloride]	95.7 ± 4.8%
NC1(C(=O)O)CCc2cc(C(=O)O)ccc21 (centres unmarked) [AIDA]	99.4 ± 5.4%
CCCc1nn(C)c2c(=O)[nH]c(-c3cc(S(=O)(=O)N4CCN(C)CC4)ccc3OCC)nc12.O=C(O)CC(O)(CC(=O)O)C(=O)O [Sildenafil citrate salt]	88.1 ± 8.0%
CNCC(O)c1ccc(O)c(O)c1.Cl (racemic) [(±)-Epinephrine hydrochloride]	95.7 ± 7.0%
NC1=NCC2c3ccccc3Cc3ccccc3N12 (centres unmarked) [Epinastine hydrochloride]	96.6 ± 14.2%
N[C@@H](CC(=O)O)C(=O)O [L-Aspartic acid]	99.3 ± 3.7%
CC#C[C@]1(O)CC[C@H]2[C@@H]3CCC4=CC(=O)CCC4=C3[C@@H](c3ccc(N(C)C)cc3)C[C@@]21C [Mifepristone]	83.5 ± 5.2%
Cl.N=C(N)c1ccc(CS(=O)(=O)F)cc1	98.9 ± 8.1%
C[C@]12C=CC(=O)C=C1CC[C@@H]1C2=CC[C@]2(C)[C@@H](C(=O)CN3CCN(c4cc(N5CCCC5)nc(N5CCCC5)n4)CC3)CC[C@@H]12.O=C(O)/C=C\C(=O)O [U-74389G maleate]	36.9 ± 10.8%
CNCC(O)c1ccc(O)cc1 (racemic) [(±)-Synephrine]	90.7 ± 28.9%
NN=C(N)N.NN=C(N)N.O=S(=O)(O)O [Aminoguanidine hemisulfate]	99.2 ± 8.4%
Cc1cnc(C(=O)NCCc2ccc(S(=O)(=O)NC(=O)NC3CCCCC3)cc2)cn1 [Glipizide]	96.3 ± 1.2%
COc1cc2c(cc1OC)C1CC(=O)C(CC(C)C)CN1CC2 (centres unmarked) [Tetrabenazine]	91.3 ± 18.4%
Cc1scc2c1N(C(=O)CN1CCN(C)CC1)c1ccccc1NC2=O [Telenzepine dihydrochloride]	107.0 ± 15.2%
CN(C)CCC(c1ccccc1)c1ccccn1 (centres unmarked) [Pheniramine maleate]	91.5 ± 14.9%

Compound	% 25 nM CA200645 binding
Cl.N=C(N)NN [Aminoguanidine hydrochloride]	100.9 ± 6.1%
CNCCCC1c2ccccc2C=Cc2ccccc21 [Protriptyline hydrochloride]	101.6 ± 7.3%
O=C1c2c(O)cc(O)cc2O[C@H](c2ccc(O)c(O)c2)[C@H]1O (racemic) [(±)-Taxifolin]	111.1 ± 7.5%
Cc1[nH]c2ccc(O)cc2c1CCN.O=C(O)/C=C\C(=O)O [2-Methyl-5-hydroxytryptamine maleate]	104.7 ± 14.7%
CNCCC(Oc1ccc(C(F)(F)F)cc1)c1ccccc1 (centres unmarked) [Fluoxetine hydrochloride]	102.9 ± 7.1%
CCc1ccc2c(-c3cccc(Cl)c3)nc(=O)n(CC)c2n1 [YM 976]	93.5 ± 3.0%
CC(C)(Oc1ccc(CCNC(=O)c2ccc(Cl)cc2)cc1)C(=O)O [Bezafibrate]	93.0 ± 7.9%
C[N+]1(CCCCC[N+]2(C)CCCC2)CCCC1.O=C([O-])C(O)C(O)C(=O)O.O=C([O-])C(O)C(O)C(=O)O [Pentolinium di[L(+)-tartrate]]	106.3 ± 2.7%
C=C1C[C@@]23CC[C@H]4[C@@](C)(CCC[C@@]4(C)C(=O)O[C@@H]4O[C@H](CO)[C@@H](O)[C@H](O)[C@H]4O)[C@@H]2CC[C@]1(O[C@@H]1O[C@H](CO)[C@@H](O)[C@H](O)[C@H]1O[C@@H]1O[C@H](CO)[C@@H](O)[C@H](O)[C@H]1O)C3 [Stevioside]	92.4 ± 13.9%
O=C1NC(=O)C(c2ccccc2)(c2ccccc2)N1 [5,5-Diphenylhydantoin]	95.9 ± 12.2%
COC(=O)[C@@H](N)Cc1ccc(O)c(O)c1.Cl	98.6 ± 13.3%
COc1ccc2c(c1OC)C(=O)OC2C1c2cc3c(cc2CCN1C)OCO3 (single isomer, unassigned; (+)) [(+)-Hydrastine]	95.9 ± 10.1%
Ro 8-4304	107.2 ± 11.5%
COC(=O)C1=C(C)NC(C)=C([N+](=O)[O-])C1c1ccccc1C(F)(F)F (racemic) [(±)-Bay K 8644]	95.3 ± 3.4%
NS(=O)(=O)Cc1noc2ccccc12 [Zonisamide sodium]	98.6 ± 10.8%
O=C(O)/C=C/C(=O)O.O=C(O)/C=C/C(=O)O.O=C(O)/C=C/C(=O)O.O=C1CCCN1CC#CCN1CCCC1.O=C1CCCN1CC#CCN1CCCC1 [Oxotremorine sesquifumarate salt]	101.9 ± 13.3%
CC(C)NCC(O)COc1cccc2[nH]ccc12 (stereo not drawn) [S(-)-Pindolol]	98.0 ± 8.4%
c1ccc2c(c1)CCCC2C1=NCCN1 (centres unmarked) [Tetrahydrozoline hydrochloride]	98.2 ± 6.4%
CCCC(CCC)C(=O)O[C@H]1C[C@H]2CC[C@@H](C1)[N+]2(C)C [Anisotropine methyl bromide]	97.1 ± 12.3%
CCCCCCCCCC[Si](C)(C)CCC(=O)NC(Cc1ccc(C)cc1)c1ccccc1 (centres unmarked) [Sandoz 58-035]	99.6 ± 12.7%
COc1ccccc1N1CCN(CCN(C(=O)C2CCCCC2)c2ccccn2)CC1.O=C(O)/C=C\C(=O)O [WAY-100635 maleate]	90.8 ± 17.8%

Compound	% 25 nM CA200645 binding
CC(=O)NCCc1c[nH]c2ccc(O)cc12 [N-Acetyl-5-hydroxytryptamine]	100.5 ± 7.6%
C[C@@H](N)[C@H]1CC[C@H](C(=O)Nc2ccncc2)CC1.Cl.Cl [Y-27632 dihydrochloride]	98.6 ± 10.3%
O=C(CCc1ccc(O)cc1)c1c(O)cc(O)cc1O [Phloretin]	67.7 ± 15.2%
CN(C)CCC=C1c2ccccc2CCc2ccccc21 [Amitriptyline hydrochloride]	83.6 ± 19.8%
Cl.NNC(N)=O [Semicarbazide hydrochloride]	98.7 ± 22.6%
CC(C)(C)C(=O)Oc1ccc(S(=O)(=O)Nc2ccccc2C(=O)NCC(=O)[O-])cc1.[Na+] [Sivelestat sodium salt hydrate]	96.6 ± 6.4%
CC(=O)C(C)=NO [2,3-Butanedione monoxime]	109.9 ± 13.3%
CC(C)(C)NCC(O)c1ccc(O)c(CO)c1.CC(C)(C)NCC(O)c1ccc(O)c(CO)c1.O=S(=O)(O)O (centres unmarked) [Albuterol hemisulfate]	97.4 ± 12.0%
CC(=O)O[C@H]1Cc2ccccc2N(C(N)=O)c2ccccc21 [BIA 2-093]	110.6 ± 5.0%
CC[N+](C)(C)c1cccc(O)c1 [Edrophonium chloride]	88.1 ± 20.0%
Cl.Clc1cc(I)cc(Cl)c1NC1=NCCN1 [p-Iodoclonidine hydrochloride]	77.2 ± 42.2%
Cc1[nH]c(=O)c(C#N)cc1-c1ccc2nccn2c1.Cl [Olprinone hydrochloride]	100.7 ± 4.5%
COc1cccc(C(=O)NCCN2CCN(c3ccc(Cl)cc3)CC2)c1	94.3 ± 6.0%
Nc1nnc(-c2cccc(Cl)c2Cl)c(N)n1 [Lamotrigine]	93.6 ± 9.2%
C=CC(N)CCC(=O)O (racemic) [(±)-gamma-Vinyl GABA]	96.9 ± 7.5%
NC(=O)c1cnccn1 [Pyrazinecarboxamide]	88.9 ± 26.1%
CC(=O)OCC(CCn1cnc2cnc(N)nc21)COC(C)=O [Famciclovir]	104.8 ± 9.2%
O=c1onc2cnc3ccccc3n12 [ODQ]	93.0 ± 5.7%
CC[C@@H](CO)NC(=O)[C@@H]1C=C2c3cccc4[nH]cc(c34)C[C@H]2N(C)C1 [Methylergonovine maleate]	91.6 ± 8.0%
CSc1nc(N)c2ncn([C@@H]3O[C@H](COP(=O)([O-])OP(=O)([O-])[O-])[C@@H](O)[C@H]3O)c2n1.O.[Na+].[Na+].[Na+]	100.3 ± 5.3%
CCN(c1nc(N)c(C(=O)NC(=N)N)nc1Cl)C(C)C [5-(N-Ethyl-N-isopropyl)amiloride]	94.1 ± 7.3%

Same assay, conditions: % of control wells (1% DMSO and 25 nM CA200645); compounds at 10 µM; whole live cells expressing the A3AR; mean ± SD, three experiments in duplicate

Compound	% 25 nM CA200645 binding
N=C(N)c1ccc(N)cc1 [4-Aminobenzamidine dihydrochloride]	97.4 ± 8.5%
O=C(O)C1=CCNCC1 [Isoguvacine hydrochloride]	87.4 ± 16.5%
C=C1C(=O)O[C@H]2[C@H]1CC/C(C)=C/CC[C@@]1(C)O[C@@H]21 [Parthenolide]	98.5 ± 15.3%

Same assay, conditions: compounds tested at 10 µM; % of control wells (1% DMSO and 25 nM CA200645); […]; mean ± SD, three experiments in duplicate

Compound	% 25 nM CA200645 binding
NC(=O)c1cccc(N)c1 [3-aminobenzamide]	91.6 ± 2.5%

Same assay, conditions: compounds tested at 10 µM; % of control wells (1% DMSO and 25 nM CA200645); whole live cells expressing the A3AR; mean ± SD, three experiments in duplicate

Compound	% 25 nM CA200645 binding
CCC1(C2=NCCN2)Cc2ccccc2O1 (centres unmarked) [Efaroxan hydrochloride]	95.2 ± 6.3%

Reference: paper PMC5733478, “A Non-imaging High Throughput Approach to Chemical Library Screening at the Unmodified Adenosine-A3 Receptor in Living Cells” (Frontiers in Pharmacology, 2017)
